Measurements from US20170239307A1, “COMPOSITION OF DOXYCYCLINE IN LIPOSOMES FOR THE PREVENTION, IMPROVEMENT AND/OR TREATMENT OF OCULAR PATHOLOGIES” (AGENCIA PÚBLICA EMPRESARIAL SANITARIA HOSPITAL ALTO …, priority 2014, published 2017).

Experiments:
[1] = system: symptoms derived from blepharitis-dry eye like disease; experiment: Symptom score according to the dry eye questionnaire; assay type: in vivo, patients
From the text: FIG. 2. Individual analysis of each patient according to dry eye questionnaire score. All patients completed a questionnaire to evaluate the symptoms derived from blepharitis-dry eye like disease. […] FIG. 3. […] This figure complements FIG. 2. This test was designed (see test design literature) for assessing the symptoms the patient experiences and they can be expressed by means of a score based on questions about these symptoms.

diabetic retinopathy = experiment: Case report: supervision of the fundus of the eye in a diabetic patient; assay type: in vivo; conditions: diabetic patient with high blood glucose; treatment orally and as eye drops from 11 Feb. 2009
aneurysmal dilatation = conditions: rats; cited from earlier work
vascular intimal layer = conditions: patients taking doxycycline; cited from earlier work
thrombosis = conditions: certain groups of hemodialysis patients; cited from earlier work
[2] = system: chronic anterior and posterior blepharitis; experiment: Case report: patient with blepharitis and glycemic decompensation, clinic examinations; conditions: same patient; high doses of oral doxycycline prescribed for 20 days, treatment abandoned
From the text: Treatment with tobramycin and dexamethasone in the form of eye drops and artificial tears was established at that time.

In the case of `C[C@H]1c2cccc(O)c2C(O)=C2C(=O)[C@]3(O)C(=O)/C(=C(/N)O)C(=O)[C@@H](N(C)C)[C@@H]3[C@@H](O)[C@@H]21` [doxycycline, (2Z,4S,4aR,5S,5aR,6R,12aS)-2-(amino-hydroxymethylidene)-4-dimethylamino-5,10,11,12a-tetrahydroxy-6-methyl-4a,5,5a,6-tetrahydro-4H-tetracene-1,3,12-trione], the “symptom score, dry eye questionnaire, each patient” value ([1]; 12 blepharitis patients, before treatment at least moderate, most severe, FIG. 2) is reported as “symptoms improved”, the “sum of all the scores in all patients, dry eye questionnaire” value ([1]; before vs after treatment, FIG. 3) is reported as “Symptoms decreased significantly” and the “signs of diabetic retinopathy” value (diabetic retinopathy) is reported as “no signs of diabetic retinopathy”. The aneurysmal dilatation (aneurysmal dilatation) was “capable of preventing aneurysmal dilatation without subsequent signs of inflammation”, the “vascular intimal layer proliferation and muscle cell migration” value (vascular intimal layer) was “less vascular intimal layer proliferation as well as less muscle cell migration” and the prevention of thrombosis (thrombosis) was “effective in the prevention of thrombosis”. The “intolerance / side effect” value [2] was “an episode of gastritis”.
